Common to all, as to assay type: in vivo
For series [1], the system named is Cabbage Looper (CL) (Trichoplusia ni). The experiment in a line: Bioassay on Cabbage Looper (CL), 128-well diet tray assay. As to conditions: 168 h, read-out: CL % Control (or Mortality) rating. How it is done:
(§1) Certain molecules disclosed in this document were tested against BAW and CL using procedures described in the following examples. In the reporting of the results, the “BAW & CL Rating Table” was used (See Table Section).
Bioassays on CL were conducted using a 128-well diet tray assay. One to five second instar CL larvae were placed in each well (3 mL) of the diet tray that had been previously filled with 1 mL of artificial diet to which 50 μg/cm^2 of the test compound (dissolved in 50 μL of 90:10 acetone-water mixture) had been applied (to each of eight wells) and then allowed to dry. Trays were covered with a clear self-adhesive cover, and held at 25° C., 14:10 light-dark for five to seven days. Percent mortality was recorded for the larvae in each well; activity in the eight wells was then averaged. The results are indicated in the table entitled “Table ABC: Assay Results” and “Table ABCD: Assay Results” (See Table Section).

Series [2] relates to Beet Armyworm (BAW) (Spodoptera exigua). The experiment in a line: Bioassay on Beet Armyworm (BAW), 128-well diet tray assay. The conditions noted are these: 168 h, read-out: BAW % Control (or Mortality) rating. Here is the method:
as §1
Bioassays on BAW were conducted using a 128-well diet tray assay. one to five second instar BAW larvae were placed in each well (3 mL) of the diet tray that had been previously filled with 1 mL of artificial diet to which 50 μg/cm^2 of the test compound (dissolved in 50 μL of 90:10 acetone-water mixture) had been applied (to each of eight wells) and then allowed to dry. Trays were covered with a clear self-adhesive cover, and held at 25° C., 14:10 light-dark for five to seven days. Percent mortality was recorded for the larvae in each well; activity in the eight wells was then averaged. The results are indicated in the tables entitled “Table ABC: Assay Results” and “Table ABCD: Assay Results” (See Table Section).

Series [3] relates to Yellow Fever Mosquito (YFM) (Aedes aegypti). The experiment in a line: Bioassay on Yellow Fever Mosquito (YFM) larvae, 96-well plate. As to conditions: about 1 day-old larvae, master plate 4000 ppm in DMSO diluted, scored on mortality after 3 days. Here is the method: Certain molecules disclosed in this document were tested against YFM using procedures described in the following paragraph. In the reporting of the results, the “GPA & YFM Rating Table” was used (See Table Section).
Master plates containing 400 μg of a molecule dissolved in 100 μL of dimethyl sulfoxide (DMSO) (equivalent to a 4000 ppm solution) are used. A master plate of assembled molecules contains 15 μL per well. To this plate, 135 μL of a 90:10 water:acetone mixture is added to each well. A robot (Biomek® NXP Laboratory Automation Workstation) is programmed to dispense 15 μL aspirations from the master plate into an empty 96-well shallow plate (“daughter” plate). There are 6 reps (“daughter” plates) created per master. The created daughter plates are then immediately infested with YFM larvae.
The day before plates are to be treated, mosquito eggs are placed in Millipore water containing liver powder to begin hatching (4 g. into 400 mL). After the daughter plates are created using the robot, they are infested with 220 μL of the liver powder/larval mosquito mixture (about 1 day-old larvae). After plates are infested with mosquito larvae, a non-evaporative lid is used to cover the plate to reduce drying. Plates are held at room temperature for 3 days prior to grading. After 3 days, each well is observed and scored based on mortality.

Where [4] appears, read: Table ABCD, 50 μg/cm^2 on artificial diet, second instar larvae, five to seven days, 25° C.
Where [5] appears, read: Table ABC, 50 μg/cm^2 on artificial diet, second instar larvae, five to seven days, 25° C.

The structures appear in SMILES notation. Structures can show the parent of a compound that is named as a salt. Where two headings read alike, the source gives them in different places.

As to `CC(C)(C)OC(=O)NC1Cc2ccc(-c3ncn(-c4ccc(OC(F)(F)C(F)(F)F)cc4)n3)cc2C1` (centres unmarked) [C2, tert-butyl (5-(1-(4-(perfluoroethoxy)phenyl)-1H-1,2,4-triazol-3-yl)-2,3-dihydro-1H-inden-2-yl)carbamate], the mortality at 50 µg/cm2 in series [1] (setting [4]) and in series [2] (setting [4]) was 50 to 100% in each case. With `NC1Cc2ccc(-c3ncn(-c4ccc(OC(F)(F)F)cc4)n3)cc2C1` (centres unmarked) [C3, 5-(1-(4-(trifluoromethoxy)phenyl)-1H-1,2,4-triazol-3-yl)-2,3-dihydro-1H-inden-2-amine dihydrochloride], the mortality at 50 µg/cm2 in series [1] and in series [2] was 50 to 100% in each case. For the same molecule, the “YFM % Control (or Mortality) rating” value in series [3] (Table ABCD) is given as “A (80-100)”.

`NC1Cc2ccc(-c3ncn(-c4ccc(OC(F)(F)F)cc4)n3)cc2C1.O=C(O)C(F)(F)F` (centres unmarked) [C4, 5-(1-(4-(trifluoromethoxy)phenyl)-1H-1,2,4-triazol-3-yl)-2,3-dihydro-1H-inden-2-amine 2,2,2-trifluoroacetate]: in series [3] (Table ABCD), the “YFM % Control (or Mortality) rating” value is recorded as “D (No activity noticed in this bioassay)”. Take `C=C(C)c1ccc(Cl)cc1[N+](=O)[O-]` [C8, 4-Chloro-2-nitro-1-(prop-1-en-2-yl)benzene]: in series [3] (Table ABCD), the “YFM % Control (or Mortality) rating” value was “D (No activity noticed in this bioassay)”.

As for `CCc1ccc(C)cc1NC(=S)NC(=O)c1ccccc1` [C17, N-((2-Ethyl-5-methylphenyl)carbamothioyl)benzamide], the “YFM % Control (or Mortality) rating” value in series [3] (Table ABCD) is listed as “D (No activity noticed in this bioassay)”. Still for that read-out and setting: as for `COc1ccc(C(C)C)c(NC(=S)NC(=O)c2ccccc2)c1` [C18, N-((2-Isopropyl-5-methoxyphenyl)carbamothioyl)benzamide], the entry is “D (No activity noticed in this bioassay)”; as for `CCCc1ccc(C)cc1NC(N)=S` [C20, 1-(5-methyl-2-propylphenyl)thiourea], “D (No activity noticed in this bioassay)”.

As for `CCc1ccc(C)cc1NC(N)=S` [C22, 1-(2-Ethyl-5-methylphenyl)thiourea], the “YFM % Control (or Mortality) rating” value in series [3] (Table ABCD) was “D (No activity noticed in this bioassay)”. For `Cc1ccc(C(C)C)c(N2C(=N)SCC2=O)c1` [C29, 2-imino-3-(2-isopropyl-5-methylphenyl)thiazolidin-4-one], the mortality at 50 µg/cm2 in series [1] (setting [4]) is 50 to 100%; in series [2] (setting [4]), 0 to 50%. The “YFM % Control (or Mortality) rating” value in series [3] (Table ABCD) is given as “B (More than 0-Less than 80)”.

In the case of `Cc1ccc(C(C)C)c(N2C(=O)CS/C2=N\C(=O)Oc2ccc([N+](=O)[O-])cc2)c1` [C30, (Z)-4-nitrophenyl (3-(2-isopropyl-5-methylphenyl)-4-oxothiazolidin-2-ylidene)carbamate], the mortality at 50 µg/cm2 in series [2] was determined as 0%. Moreover, the “YFM % Control (or Mortality) rating” value in series [3] (Table ABCD) was “D (No activity noticed in this bioassay)”. For `Cc1ccc(C(C)C)c(NC(=S)NC(=O)NC2Cc3ccc(-c4ncn(-c5ccc(OC(F)(F)F)cc5)n4)cc3C2)c1` (centres unmarked) [F1, 1-[(2-isopropyl-5-methyl-phenyl)carbamothioyl]-3-[5-[1-[4-(trifluoromethoxy)phenyl]-1,2,4-triazol-3-yl]indan-2-yl]urea], the mortality at 50 µg/cm2 in series [1] (setting [5]) and in series [2] (setting [5]) was 50 to 100% throughout. Also, the “YFM % Control (or Mortality) rating” value in series [3] (Table ABC) was “A (80-100)”. As to `Cc1ccc(C(C)C)c(NC(=S)NC(=O)NC2Cc3ccc(-c4ncn(-c5ccc(OC(F)(F)C(F)(F)F)cc5)n4)cc3C2)c1` (centres unmarked) [F3, 1-[(2-isopropyl-5-methyl-phenyl)carbamothioyl]-3-[5-[1-[4-(1,1,2,2,2-pentafluoroethoxy)phenyl]-1,2,4-triazol-3-yl]indan-2-yl]urea], the mortality at 50 µg/cm2 in series [1] (setting [5]) and in series [2] (setting [5]) was 50 to 100% each time. Also, the “YFM % Control (or Mortality) rating” value in series [3] (Table ABC) is reported as “A (80-100)”. As to `CCc1ccc(C)cc1NC(=S)NC(=O)NC1Cc2ccc(-c3ncn(-c4ccc(OC(F)(F)F)cc4)n3)cc2C1` (centres unmarked) [F5, 1-[(2-Ethyl-5-methyl-phenyl)carbamothioyl]-3-[5-[1-[4-(trifluoromethoxy)phenyl]-1,2,4-triazol-3-yl]indan-2-yl]urea], the mortality at 50 µg/cm2 in series [1] (setting [5]) and in series [2] (setting [5]) was 50 to 100% each time. For the molecule `CCc1cccc(C)c1NC(=S)NC(=O)NC1Cc2ccc(-c3ncn(-c4ccc(OC(F)(F)F)cc4)n3)cc2C1` (centres unmarked) [F6, 1-[(2-Ethyl-6-methyl-phenyl)carbamothioyl]-3-[5-[1-[4-(trifluoromethoxy)phenyl]-1,2,4-triazol-3-yl]indan-2-yl]urea], the mortality at 50 µg/cm2 in series [1] (setting [5]) and in series [2] (setting [5]) was 50 to 100% each time. `CCc1ccccc1NC(=S)NC(=O)NC1Cc2ccc(-c3ncn(-c4ccc(OC(F)(F)F)cc4)n3)cc2C1` (centres unmarked) [F7, 1-[(2-Ethylphenyl)carbamothioyl]-3-[5-[1-[4-(trifluoromethoxy)phenyl]-1,2,4-triazol-3-yl]indan-2-yl]urea]: the mortality at 50 µg/cm2 in series [1] (setting [5]) and in series [2] (setting [5]) was 50 to 100% in each case. `CCCc1ccc(C)cc1NC(=S)NC(=O)NC1Cc2ccc(-c3ncn(-c4ccc(OC(F)(F)F)cc4)n3)cc2C1` (centres unmarked) [F8, 1-[(5-Methyl-2-propyl-phenyl)carbamothioyl]-3-[5-[1-[4-(trifluoromethoxy)phenyl]-1,2,4-triazol-3-yl]indan-2-yl]urea]: the mortality at 50 µg/cm2 in series [1] (setting [5]) and in series [2] (setting [5]) was 50 to 100% throughout. For `CCc1ccc(C)cc1N1C(=O)CS/C1=N\C(=O)NC1Cc2ccc(-c3ncn(-c4ccc(OC(F)(F)F)cc4)n3)cc2C1` (centres unmarked) [F9, (Z)-1-(3-(2-Ethyl-5-methylphenyl)-4-oxothiazolidin-2-ylidene)-3-(5-(1-(4-(trifluoromethoxy)phenyl)-1H-1,2,4-triazol-3-yl)-2,3-dihydro-1H-inden-2-yl)urea], the mortality at 50 µg/cm2 in series [1] (setting [5]) and in series [2] (setting [5]) was 50 to 100% in each case. The “YFM % Control (or Mortality) rating” value in series [3] (Table ABC) is “A (80-100)”. With `CC(C)c1ccccc1NC(=S)NC(=O)NC1Cc2ccc(-c3ncn(-c4ccc(OC(F)(F)F)cc4)n3)cc2C1` (centres unmarked) [F14, 1-[(2-Isopropylphenyl)carbamothioyl]-3-[5-[1-[4-(trifluoromethoxy)phenyl]-1,2,4-triazol-3-yl]indan-2-yl]urea], the mortality at 50 µg/cm2 in series [1] (setting [5]) and in series [2] (setting [5]) was 50 to 100% in each case.

For `CC(C)c1ccccc1N1C(=O)CCS/C1=N\C(=O)NC1Cc2ccc(-c3ncn(-c4ccc(OC(F)(F)F)cc4)n3)cc2C1` (centres unmarked) [FA4, (Z)-1-(3-(2-isopropylphenyl)-4-oxo-1,3-thiazinan-2-ylidene)-3-(5-(1-(4-(trifluoromethoxy)phenyl)-1H-1,2,4-triazol-3-yl)-2,3-dihydro-1H-inden-2-yl)urea], the mortality at 50 µg/cm2 in series [1] (setting [5]) and in series [2] (setting [5]) was 50 to 100% each time. For `Cc1ccc(C(C)C)c(N2/C(=N/C(=O)NC3Cc4ccc(-c5ncn(-c6ccc(OC(F)(F)F)cc6)n5)cc4C3)SCCC2C)c1` (centres unmarked) [P16, (Z)-1-(3-(2-Isopropyl-5-methylphenyl)-4-methyl-1,3-thiazinan-2-ylidene)-3-(5-(1-(4-(trifluoromethoxy)phenyl)-1H-1,2,4-triazol-3-yl)-2,3-dihydro-1H-inden-2-yl)urea], the mortality at 50 µg/cm2 in series [1] (setting [5]) and in series [2] (setting [5]) was 50 to 100% each time.

As for `Cc1ccc(C(C)C)c(N2C(=O)CCS/C2=N\C(=O)NC2Cc3ccc(-c4ncn(-c5ccc(OC(F)(F)F)cc5)n4)cc3C2)c1` (centres unmarked) [P17, (Z)-1-(3-(2-Isopropyl-5-methylphenyl)-4-oxo-1,3-thiazinan-2-ylidene)-3-(5-(1-(4-(trifluoromethoxy)phenyl)-1H-1,2,4-triazol-3-yl)-2,3-dihydro-1H-inden-2-yl)urea], the mortality at 50 µg/cm2 in series [1] (setting [5]) and in series [2] (setting [5]) was 50 to 100% in each case.

For the origin of these results see patent US9469617B2, “Molecules having certain pesticidal utilities, and intermediates, compositions, and processes related thereto” (priority 2014, dated 2016).
